Measurements from publication PMC10033409, “Autoregulation of GPCR signalling through the third intracellular loop” (Nature, 2023).
Where “and” joins values, the source holds several entries; their conditions need not be identical. Identical values can stand only once. Counter-ions that a name gives are not always drawn.

What was measured:
PTH1R = molecular target: T1, PTH1R (Homo sapiens, UniProt Q03431); assay: InsP1 accumulation, PTH1R; assay type: cell-based; settings: PTH1R Wild-Type
T1 construct: expressed in transfected cells; host or cells: HEK 293T
T1 sequence (Q03431 27-593): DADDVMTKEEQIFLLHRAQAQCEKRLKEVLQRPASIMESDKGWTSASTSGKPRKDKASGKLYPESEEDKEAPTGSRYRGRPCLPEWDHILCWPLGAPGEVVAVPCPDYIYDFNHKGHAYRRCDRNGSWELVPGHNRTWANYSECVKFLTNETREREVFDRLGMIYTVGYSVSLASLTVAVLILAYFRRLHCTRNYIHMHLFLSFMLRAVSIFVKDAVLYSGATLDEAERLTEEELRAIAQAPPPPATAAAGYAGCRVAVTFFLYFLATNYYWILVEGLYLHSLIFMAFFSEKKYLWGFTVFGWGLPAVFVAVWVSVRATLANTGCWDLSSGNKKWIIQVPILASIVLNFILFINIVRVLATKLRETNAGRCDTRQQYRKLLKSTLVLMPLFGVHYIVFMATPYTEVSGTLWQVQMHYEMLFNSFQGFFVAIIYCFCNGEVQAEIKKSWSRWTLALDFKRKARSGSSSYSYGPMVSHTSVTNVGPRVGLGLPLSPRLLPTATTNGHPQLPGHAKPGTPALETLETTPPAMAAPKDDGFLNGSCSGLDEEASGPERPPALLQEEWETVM
Description: One millilitre of medium was removed from each well containing transfected cells. The remaining volume was used to gently shear and resuspend the cells by pipetting. The cell mixture was centrifuged (3 min, 300g) and media was removed using a vacuum manifold. […] The cells were washed once by repeating this procedure.
For all other second messenger assays, expression level and cell density of each condition was estimated through fluorescence. Fluorescence spectra for mCerulean (Horiba Fluoromax 4, excitation 430 nm, emission scan 450–600 nm, bandpass 4 nm) and mCitrine (Horiba Fluoromax 4, excitation 490 nm, emission scan 500–600 nm, bandpass 4 nm) were acquired for each condition. Cells were resuspended at 350,000 ± 30,000 fluorescence counts at a wavelength representing optical density of the sample (excitation 430 nm/emission 450 nm), corresponding with 2 × 10^6 ± 5 × 10^5 cells per m^l. This was confirmed by counting the cells on a haemocytometer (Countess II).
Resuspended cells were added 1:1 with a 2× concentration of ligand (70 µl final) into an opaque 96-well U-bottom plate (Greiner Bio-One). […] Plates were incubated at 37 °C for 2 h to stimulate InsP1 production. Reactions were quenched and processed for the InsP1 HTRF Assay (CisBio), following a protocol modified to achieve a higher signal to noise ratio. Fifteen microlitres of D2-conjugated InsP1 resuspended in lysis buffer (Cisbio) and 15 µl of terbium cryptate conjugated anti-InsP1 antibody resuspended in lysis buffer (Cisbio) were added to the stimulated cell mixture. Cell lysate was equilibrated for 1 h at ambient temperature with shaking (500 rpm). Reactions were transferred (4 × 20 µl) to a 384-well plate for technical replicates. […] FRET ratio for each reading was calculated as the ratio of acceptor emission to donor emission. InsP1 signal for a drug and transfection combination was calculated as the average FRET ratio of a given transfection condition without drug treatment subtracted from the average FRET ratio of a of a given transfection condition with drug treatment.

[1] = test system: β2AR–Gs peptide FRET sensor; assay: ∆FRET assay, β2AR–Gs peptide SPASM FRET sensor; settings: isoproterenol 100 µM

CC(C)NCC(O)c1ccc(O)c(O)c1 (stereo not drawn) [Isoproterenol, isoproterenol (+)-bitartrate salt]
IP1 (AU), Average (PTH1R; [Isoproterenol] log(M) -5): 0.44 AU
IP1 (AU), Average (PTH1R; [Isoproterenol] log(M) -6): 0.45 AU
IP1 (AU), Average (PTH1R; [Isoproterenol] log(M) -6.30103): 0.41 AU
IP1 (AU), Average (PTH1R; [Isoproterenol] log(M) -7): 0.38 AU
IP1 (AU), Average (PTH1R; [Isoproterenol] log(M) -7.30103): 0.22 AU
IP1 (AU), Average (PTH1R; [Isoproterenol] log(M) -8): 0.0235 AU
IP1 (AU), Average (PTH1R; [Isoproterenol] log(M) -8.30103): 0.04 AU
IP1 (AU), Average (PTH1R; [Isoproterenol] log(M) -9): -0.0234 AU
IP1 (AU), Average (PTH1R; [Isoproterenol] log(M) -10): -0.0216 AU
IP1 (AU), Average (PTH1R; [Isoproterenol] log(M) -11): -0.00815 AU
∆FRET (Isoproterenol - Buffer) ([1]; HVQ-AAA β2AR–Gs peptide sensor, single experiments N 1-5): 0.012 and 0.013 and 0.020
∆FRET (Isoproterenol - Buffer) ([1]; QDG-AAA β2AR–Gs peptide sensor, single experiments N 1-5): 0.021 and 0.017 and 0.027 and 0.030
∆FRET (Isoproterenol - Buffer) ([1]; Wild-Type β2AR–Gs peptide sensor, + 10 µM Gq-peptide, single samples): 0.034 and 0.026 and 0.018
∆FRET (Isoproterenol - Buffer) ([1]; Wild-Type β2AR–Gs peptide sensor, single experiments N 1-5): 0.014 and 0.016 and 0.017 and 0.019
∆FRET (Isoproterenol - Buffer) ([1]; Wild-Type β2AR–Gs peptide sensor, without Gq-peptide, single samples): 0.013 and 0.016 and 0.010 and 0.017 and 0.012
∆FRET (Isoproterenol - Buffer) ([1]; ∆ICL3 β2AR–Gs peptide sensor, without Gq-peptide, single samples): 0.022 and 0.020 and 0.025 and 0.024
